Measured values as given in patent US20160138049A1, “OXYGEN-TOLERANT CoA-ACETYLATING [sequence] DEHYDROGENASE CONTAINING PATHWAY FOR BIOFUEL PRODUCTION” (The Regents of the University of California, priority 2013, published 2016).
Where two headings read alike, the source gives them in different places.

How the values were obtained:
[1] = target: T1, Lactobacillus brevis PduP, CoA-acylating propionaldehyde dehydrogenase (PduP_L.bre, YP_795711, SEQ ID NO:47 and 48), poly-His6 tagged (Levilactobacillus brevis, UniProt Q03Q42); experiment: Kinetic parameters of PduP (CoA-acylating aldehyde dehydrogenase), NADH depletion at 340 nm; type: biochemical
T1 sequence (Q03Q42 1-477): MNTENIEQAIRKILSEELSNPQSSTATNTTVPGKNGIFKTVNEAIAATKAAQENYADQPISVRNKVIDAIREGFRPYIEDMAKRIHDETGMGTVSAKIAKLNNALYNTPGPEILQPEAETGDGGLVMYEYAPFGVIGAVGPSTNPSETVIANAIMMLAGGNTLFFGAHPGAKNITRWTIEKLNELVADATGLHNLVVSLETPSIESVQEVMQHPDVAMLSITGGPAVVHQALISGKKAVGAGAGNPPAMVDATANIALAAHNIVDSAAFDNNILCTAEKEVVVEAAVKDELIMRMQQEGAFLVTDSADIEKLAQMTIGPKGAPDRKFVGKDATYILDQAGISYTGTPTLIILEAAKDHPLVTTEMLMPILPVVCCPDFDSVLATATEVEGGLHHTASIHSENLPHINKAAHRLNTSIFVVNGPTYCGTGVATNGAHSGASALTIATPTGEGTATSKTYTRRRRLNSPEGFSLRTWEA
Experimental: (§1) Protein purification was done by using His-Spin Protein miniprep purification kit from Zymo following manufacturer's manual. Overnight culture of E. coli strain BL-21(DE3) harboring different pCDF-pdup plasmid was used to inoculate fresh 20 ml LB. The newly inoculated culture was incubated at 37° C. until OD600 nm reaches 0.6 which was then induced with 1 mM IPTG. The induced cultures were then incubated overnight in 30° C. rotary shaker to allow protein expression. The cultures were then harvested by centrifugation at 4,300×g for 20 min. The pellet was then resuspended with 1 mL of Zymo His-binding buffer and mixed with 1 mL of 0.1 mm glass beads (Biospec). The sample was then homogenated using TissueLyser II (Quiagen).
(§2) Enzyme assays were conducted by using Bio-Tek PowerWave XS microplate spectrophotometer. CoA-acylating aldehyde dehydrogenase activity was measured by the decrease of absorbance at 340 nm, corresponding to depletion of NADH. […] For determining specific activity for other chain length acyl-CoA, 500 μM was used. The mixture excluding acyl-CoA was incubated for 5 minutes at 30° C. The addition of the acyl-CoA initiated the reaction. kcat and Km were determined by nonlinear regression fitting to Michaelis-Menten equation using graphing software Origin.
(§3) To characterize these PduP homologues, plasmids harboring individual pduP genes were constructed with a poly-His6 tag (plasmids pCDF-pduP_ahyd, pCDF-pdup_kpne, pCDF-pdup_lbre, pCDF-pdup_lmon, pCDF-pdup_sent, and pCDF-pdup_pgin). PduP homologues were then purified under aerobic condition without cleaving off His tags. The activities of the enzymes were determined using acyl-CoA with different chain lengths, and the disappearance of NADH was monitored.
(§4) The efficiency of these PduP homologues were assessed.

[2] = target: Porphyromonas gingivalis PduP, CoA-acylating propionaldehyde dehydrogenase (PduP_P.gin, YP_001928839, SEQ ID NO:51 and 52), poly-His6 tagged (Porphyromonas gingivalis, UniProt B2RIP7); experiment: as above
Sequence of Porphyromonas gingivalis PduP, CoA-acylating propionaldehyde dehydrogenase (PduP_P.gin, YP_001928839, SEQ ID NO:51 and 52), poly-His6 tagged (B2RIP7 entry or part of it): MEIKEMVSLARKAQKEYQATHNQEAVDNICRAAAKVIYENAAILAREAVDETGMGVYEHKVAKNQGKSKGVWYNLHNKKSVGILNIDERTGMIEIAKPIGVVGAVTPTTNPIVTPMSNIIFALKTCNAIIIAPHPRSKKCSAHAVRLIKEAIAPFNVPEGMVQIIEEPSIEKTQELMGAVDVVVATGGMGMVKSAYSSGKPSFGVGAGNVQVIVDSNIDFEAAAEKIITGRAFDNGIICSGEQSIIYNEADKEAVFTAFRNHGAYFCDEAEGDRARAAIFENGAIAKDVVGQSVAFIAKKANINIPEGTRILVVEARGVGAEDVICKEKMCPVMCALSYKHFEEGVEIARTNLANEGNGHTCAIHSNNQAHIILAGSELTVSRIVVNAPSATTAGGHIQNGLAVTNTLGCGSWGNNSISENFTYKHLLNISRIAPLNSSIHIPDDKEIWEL
Experimental: as §1, §2, §3, §4

[3] = target: Klebsiella pneumoniae PduP, CoA-acylating propionaldehyde dehydrogenase (PduP_K.pne, YP_001336844, SEQ ID NO:45 and 46), poly-His6 tagged (Klebsiella pneumoniae, UniProt A0ACD7U6D7); experiment: as above
Experimental: as §1, §2, §3, §4

[4] = target: Salmonella enterica PduP, CoA-acylating propionaldehyde dehydrogenase (PduP_S.ent, AAD39015, SEQ ID NO:33 and 34), poly-His6 tagged (Salmonella enterica, UniProt Q9XDN1); experiment: as above
Sequence of Salmonella enterica PduP, CoA-acylating propionaldehyde dehydrogenase (PduP_S.ent, AAD39015, SEQ ID NO:33 and 34), poly-His6 tagged (Q9XDN1 whole entry): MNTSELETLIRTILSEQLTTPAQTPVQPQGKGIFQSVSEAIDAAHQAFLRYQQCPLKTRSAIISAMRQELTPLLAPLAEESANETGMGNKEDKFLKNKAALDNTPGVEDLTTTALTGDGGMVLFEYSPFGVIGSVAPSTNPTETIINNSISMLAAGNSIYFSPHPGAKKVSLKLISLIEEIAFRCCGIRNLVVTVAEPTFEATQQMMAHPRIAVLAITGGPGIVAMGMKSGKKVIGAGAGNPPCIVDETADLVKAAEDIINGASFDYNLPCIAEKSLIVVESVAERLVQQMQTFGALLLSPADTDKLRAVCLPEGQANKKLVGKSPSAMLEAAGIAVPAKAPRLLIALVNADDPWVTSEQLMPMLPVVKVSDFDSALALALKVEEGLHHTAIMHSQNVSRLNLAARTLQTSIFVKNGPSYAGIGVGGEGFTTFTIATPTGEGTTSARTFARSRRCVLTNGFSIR
Experimental: as §1, §2, §3, §4

[5] = target: Listeria monocytigenes PduP, CoA-acylating propionaldehyde dehydrogenase (PduP_L.mon, NP_464690, SEQ ID NO:49 and 50), poly-His6 tagged (Listeria monocytogenes, UniProt Q8Y7V4); experiment: as above
Sequence of Listeria monocytigenes PduP, CoA-acylating propionaldehyde dehydrogenase (PduP_L.mon, NP_464690, SEQ ID NO:49 and 50), poly-His6 tagged (Q8Y7V4 entry or part of it): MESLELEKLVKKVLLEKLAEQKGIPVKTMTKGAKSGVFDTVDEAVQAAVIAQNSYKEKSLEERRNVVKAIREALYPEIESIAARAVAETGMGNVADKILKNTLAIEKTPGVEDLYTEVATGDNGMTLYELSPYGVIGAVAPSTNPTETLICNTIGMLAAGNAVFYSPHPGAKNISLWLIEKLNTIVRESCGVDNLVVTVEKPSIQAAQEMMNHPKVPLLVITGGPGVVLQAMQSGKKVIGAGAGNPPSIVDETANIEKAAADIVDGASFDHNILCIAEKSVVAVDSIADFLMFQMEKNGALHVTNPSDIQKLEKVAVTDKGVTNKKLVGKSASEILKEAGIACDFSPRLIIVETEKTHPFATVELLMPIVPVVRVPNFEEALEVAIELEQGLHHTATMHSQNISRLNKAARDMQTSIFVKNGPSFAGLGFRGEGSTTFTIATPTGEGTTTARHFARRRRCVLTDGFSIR
Experimental: as §1, §2, §3, §4

[6] = system: S. elongatus strain BUOH-SE; experiment: n-Butanol toxicity test (growth); type: cell-based, Synechococcus elongatus PCC 7942
Experimental: Growth was measured daily.

[7] = system: S. elongatus strain BUOH-SE
Experimental: S. elongatus PCC7942 cells were grown according to the procedure in “culture medium and condition”. Once growth reached OD730 about 2, the culture was diluted to OD730 of 0.1 with 50 mL fresh BG11 medium containing 50 mM NaHCO3 and appropriate antibiotics. Then, various amounts of n-butanol were added into the culture to achieve the desired concentration (0, 250, 500, 750, and 1000 mg/L). Growth was measured daily. Every two days, 5 mL of culture was removed and 5 mL fresh BG-11 containing 500 mM NaHCO3, appropriate amounts of antibiotics and n-butanol was added back to the culture to ensure sufficient carbon supply.

[8] = CoA-acylating aldehyde dehydrogenase (PduP) assay, butyryl-CoA reduction; type: biochemical; details: purified under aerobic condition; 500 μM NADH, 1 mM DTT, pH 7.15, 30° C.
Experimental: as §1, §2, §3, §4

[9] = Substrate chain length specificity of PduP; type: biochemical; details: acyl-CoA chain lengths C2 to C12
Experimental: FIG. 3A-B Substrate chain length specificity of CoA-acylating aldehyde dehydrogenases, PduP. A) Specific activity of different PduP (pmol min^−1 mg^−1). B) Relative activity of PduP. Specific activity was determined with substrate concentration of 1 mM acyl-CoA, 500 uM NADH, 1 mM DTT in 50 mM potassium phosphate buffer at pH 7.15 at 30° C.
as §2, §3

[10] = substrate: CCCC(=O)SCCNC(=O)CCNC(=O)[C@H](O)C(C)(C)COP(=O)(O)OP(=O)(O)OC[C@H]1O[C@@H](n2cnc3c(N)ncnc32)[C@H](O)[C@@H]1OP(=O)(O)O; experiment: purified protein, by the assay type; details: other: pH 7.15, 30° C., 500 μM NADH, 1 mM DTT, acyl-CoA 0.03 mM to 2 mM
[11] = substrate: CC(=O)SCCNC(=O)CCNC(=O)[C@H](O)C(C)(C)COP(=O)(O)OP(=O)(O)OC[C@H]1O[C@@H](n2cnc3c(N)ncnc32)[C@H](O)[C@@H]1OP(=O)(O)O; experiment: purified protein, by the assay type; details: other: pH 7.15, 30° C., 500 μM NADH, 1 mM DTT, acyl-CoA 0.03 mM to 2 mM
E. coli strain JCL166 = experiment: E. coli anaerobic growth rescue with PduP and n-butanol pathway; type: cell-based; details: GC of culture medium
Experimental: Cells of E. coli strain JCL166 and its derivatives were cultured overnight in LB with appropriate antibiotics at 37° C. Overnight cultures (3 μL) were used to inoculate 3 mL of fresh LB media supplemented with 1% glucose and appropriate antibiotics (100 μg/mL ampicillin and 50 μg/mL kanamycin) and 0.1 mM IPTG in 10 mL BD vacutainers. A needle with Millipore PES filter was used to pierce through the rubber cap of the culture. The headspace of these cultures was then purged several times with 95% N2/5% H2 gas using an anaerobic chamber (Coy Lab Products, Grass Lake, Mich.). The needle with filter was removed in anaerobic chamber. These anaerobic cultures were then taken out of anaerobic chamber and incubated in 37° C. rotary shaker. Culture was analyzed 24 hours later for cell density and alcohol content measurement.
These PduP homologues were tested for n-butanol production utilizing an anaerobic growth rescue assay. E. coli strain JCL 166 (ΔadhE, ΔldhA, ΔfrdB) contains gene knock-outs for mixed acid fermentation. Fermentation pathways are essential for E. coli to recycle NADH back into to NAD^+ for the Embden-Meyerhof-Parnas pathway to continue (FIG. 2A). […] The culture medium of these anaerobically grown cultures were analyzed for alcohol production (FIG. 2C) using gas chromatography (GC).

[12] = kcat/Km butyryl-CoA over kcat/Km acetyl-CoA
[13] = pH 7.15, 30° C., 500 μM NADH, 1 mM DTT, acyl-CoA 0.03 mM to 2 mM

## CCCC(=O)SCCNC(=O)CCNC(=O)[C@H](O)C(C)(C)COP(=O)(O)OP(=O)(O)OC[C@H]1O[C@@H](n2cnc3c(N)ncnc32)[C@H](O)[C@@H]1OP(=O)(O)O [Butyryl-CoA, butyryl-CoA]
[1]; [12]
  Ratio C4:C2 (butyryl-CoA to acetyl-CoA catalytic efficiency ratio): 2
[1]; [13]
  kcat: 3.37 ± 0.19 s⁻¹
[2]; [12]
  Ratio C4:C2 (butyryl-CoA to acetyl-CoA catalytic efficiency ratio): 0.6
[2]; [13]
  kcat: 0.19 ± 0.02 s⁻¹
[3]; [12]
  Ratio C4:C2 (butyryl-CoA to acetyl-CoA catalytic efficiency ratio): 5
[3]; [13]
  kcat: 7.02 ± 0.64 s⁻¹
[4]; [12]
  Ratio C4:C2 (butyryl-CoA to acetyl-CoA catalytic efficiency ratio): 6.8
[4]; [13]
  kcat: 25.38 ± 1.81 s⁻¹
[5]; [12]
  Ratio C4:C2 (butyryl-CoA to acetyl-CoA catalytic efficiency ratio): 1.4
[5]; [13]
  kcat: 11.99 ± 1.56 s⁻¹

## CCCCO [n-butanol]
[6]; 750 mg/L n-butanol in culture medium
  growth of S. elongatus strain BUOH-SE: visible growth retardation
[6]; 1 g/L n-butanol
  growth of S. elongatus strain BUOH-SE: cell growth is inhibited
[7]; 750 mg/L of n-butanol in culture medium
  growth of S. elongatus strain BUOH-SE: visible growth retardation
[7]; 1 g/L of n-butanol
  growth of S. elongatus strain BUOH-SE: cell growth is inhibited

B1: Lactobacillus brevis PduP, CoA-acylating propionaldehyde dehydrogenase (PduP_L.bre, YP_795711, SEQ ID NO:47 and 48), poly-His6 tagged (Levilactobacillus brevis … (protein)
chain: MNTENIEQAIRKILSEELSNPQSSTATNTTVPGKNGIFKTVNEAIAATKAAQENYADQPISVRNKVIDAIREGFRPYIEDMAKRIHDETGMGTVSAKIAKLNNALYNTPGPEILQPEAETGDGGLVMYEYAPFGVIGAVGPSTNPSETVIANAIMMLAGGNTLFFGAHPGAKNITRWTIEKLNELVADATGLHNLVVSLETPSIESVQEVMQHPDVAMLSITGGPAVVHQALISGKKAVGAGAGNPPAMVDATANIALAAHNIVDSAAFDNNILCTAEKEVVVEAAVKDELIMRMQQEGAFLVTDSADIEKLAQMTIGPKGAPDRKFVGKDATYILDQAGISYTGTPTLIILEAAKDHPLVTTEMLMPILPVVCCPDFDSVLATATEVEGGLHHTASIHSENLPHINKAAHRLNTSIFVVNGPTYCGTGVATNGAHSGASALTIATPTGEGTATSKTYTRRRRLNSPEGFSLRTWEA
[8]
  Specific activity for butyryl-CoA reduction: 2.5 ± 0.2 µmol/min/mg
[9]
  Acyl-CoA substrate favoured (highest specific activity): hexanoyl-CoA
[10]
  Km: 534.3 ± 59.8 µM
[11]
  Km: 76.0 ± 38.2 µM
E. coli strain JCL166
  Alcohol production from the growth rescue broth, n-butanol versus ethanol: more n-butanol than ethanol

B2: K. pne: PduP homologue from Klebsiella pneumoniae, YP_001336844; SEQ ID NO:45 and 46 (protein, listed as Klebsiella pneumoniae)
chain: MNTAELETLIRTILSEKLAPTPPAPQQEQGIFCDVGSAIDAAHQAFLRYQQCPLKTRSAIISALRETLAPELATLAEESATETGMGNKEDKYLKNKAALENTPGIEDLTTSALTGDGGMVLFEYSPFGVIGAVAPSTNPTETIINNSISMLAAGNSVYFSPHPGAKKVSLKLIARIEEIAYRCSGIRNLVVTVAEPTFEATQQMMSHPLIAVLAITGGPGIVAMGMKSGKKVIGAGAGNPPCIVDETADLVKAAEDIISGAAFDYNLPCIAEKSLIVVASVADRLIQQMQDFDALLLSRQEADTLRAVCLPDGAANKKLVGKSPAALLAAAGLAVPPRPPRLLIAEVEANAPWVTCEQLMPVLPIVRVADFDSALALALRVEEGLHHTAIMHSQNVSRLNLAARTLQTSIFVKNGPSYAGIGVGGEGFTTFTIATPTGEGTTSARTFARLRRCVLTNGFSIR
[8]
  Specific activity for butyryl-CoA reduction: 8.9 ± 4.6 µmol/min/mg
[9]
  Acyl-CoA substrate favoured (highest specific activity): highest for propionyl-CoA reduction
E. coli strain JCL166
  Alcohol production from the growth rescue broth, n-butanol versus ethanol: more n-butanol than ethanol
